One experiment concerns the target T1, human TRPV3 (Homo sapiens, UniProt Q8NET8).
T1 construct: expressed in transfected cells; host or cells: HEK293
T1 sequence (Q8NET8 1-790): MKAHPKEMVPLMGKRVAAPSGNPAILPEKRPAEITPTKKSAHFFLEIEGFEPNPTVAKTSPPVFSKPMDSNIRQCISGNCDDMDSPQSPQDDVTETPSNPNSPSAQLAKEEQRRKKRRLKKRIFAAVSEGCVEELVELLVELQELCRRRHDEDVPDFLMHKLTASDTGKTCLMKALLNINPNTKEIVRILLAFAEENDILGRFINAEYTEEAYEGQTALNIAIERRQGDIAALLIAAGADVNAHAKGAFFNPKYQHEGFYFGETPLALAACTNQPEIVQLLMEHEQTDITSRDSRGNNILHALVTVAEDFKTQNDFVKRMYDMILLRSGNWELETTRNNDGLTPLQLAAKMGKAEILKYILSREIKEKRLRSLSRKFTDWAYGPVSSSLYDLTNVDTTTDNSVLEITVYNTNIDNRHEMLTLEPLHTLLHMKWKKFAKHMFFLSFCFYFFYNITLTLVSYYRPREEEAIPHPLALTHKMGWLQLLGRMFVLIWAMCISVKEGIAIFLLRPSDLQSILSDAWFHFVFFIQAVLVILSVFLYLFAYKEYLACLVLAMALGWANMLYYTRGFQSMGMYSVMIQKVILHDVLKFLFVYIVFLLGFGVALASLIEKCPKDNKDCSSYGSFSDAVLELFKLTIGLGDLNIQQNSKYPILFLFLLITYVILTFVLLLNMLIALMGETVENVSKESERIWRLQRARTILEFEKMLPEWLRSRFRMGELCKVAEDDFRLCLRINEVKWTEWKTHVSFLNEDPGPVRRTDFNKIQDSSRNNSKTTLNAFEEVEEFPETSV
Nature of the experiment: Calcium flux assay (FLIPR TETRA), recombinant HEK293 cells expressing TRPV3, 2-APB response. Type of experiment: cell-based. The conditions noted are these: 2-APB at its EC80. The method, boiled down:
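Response is the peak fluorescence increase over baseline, as a percentage of the compound-free response to 2-APB at EC80. Calcium flux recorded on FLIPR TETRA in stable human or mouse TRPV3 HEK293 cells after 90–120 min Calcium-4 dye loading.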

A further experiment relates to FITC-challenged mice. Nature of the experiment: Contact hypersensitivity (CHS) to FITC, ear swelling in mice. Type of experiment: in vivo, mice (BALB/c). Particulars: reduction in ear skin thickness vs vehicle, 24 hours after FITC challenge; for inhibition in vivo at 30 mg/kg / inhibition in vivo at 10 mg/kg / inhibition in vivo at 100 mg/kg: Mus musculus, read-out: FITC % effect; for inhibition in vivo at 100 mg/kg: 100 mg/kg bid po. On the procedure: (ii) In vivo Data The following protocol was used to evaluate the efficacy of a compound against contact hypersensitivity:
Young adult female BALB/c mice (18±2 g body weight at 6-8 weeks old) Charles River Laboratories) were maintained under pathogen-free conditions and housed in an animal room maintained t at temperature of 21±1° C. and a humidity of 43±5%. Induction of contact hypersensitivity (CHS) and ear thickness measurements for all animals were carried out under light anesthesia (3-5% isoflurane/oxygen) for 1-2 minutes.
Contact hypersensitivity consists of the afferent or initiation sensitizing phase, and the efferent or elicitation phase. The latter phase occurs when epidermal cells encounter a particular antigen to which the epidermal cells have previously been exposed, and is characterized in rodents by localized swelling in the skin.
Fluorescein isothiocyanate (FITC) was purchased from Sigma-Aldrich and dissolved in 1:1 in acetone/dibutylphthalate prior to epicutaneous application. Mice were sensitized by painting epicutaneously 40 uL of 0.5% FITC on the abdomen ventral skin shaved one day prior to sensitization. Six days later, mice were challenged by painting epicutaneously 20 uL total volume of 0.5% FITC on the right ear (10 uL on either side). Control mice were treated with vehicle only. Ear swelling was measured 24 hours after challenge. Treatment groups were dosed orally at a dose volume of 10 mL/kg with compounds either BID (1 hour prior to FITC challenge, 8 hours after first dose and 2 hours prior to ear swelling measurement at 24 hours post FITC challenge) or QD (1 hour prior to FITC challenge and 2 hours prior to ear swelling measurement at 24 hours post FITC challenge). Inflammation was determined by the degree of ear swelling of the hapten exposed ear compared with the untreated ear with a Quick Mini thickness-gauge caliber (Mitutoyo, Japan). The change in ear thickness after allergen treatment can be used to calculate the percent suppression of contact hypersensitivity.
The level of compound-mediated suppression of ear skin thickness in FITC-challenged mice is indicated in Table 2 wherein “A” refers to a reduction in ear skin thickness of >50%, “B” refers to a reduction in ear skin thickness of 30-50% and “C” refers to a reduction in ear skin thickness of <30% relative to vehicle-treated animals.

Read-outs that look alike come from different tables or passages of the source.

Consider `COc1ncnc(OC)c1C(=O)Nc1nc(C(F)(F)F)c(-c2ccnc(C(C)(C)C#N)c2)s1` [Example 33, N-{5-[2-(2-cyanopropan-2-yl)pyridin-4-yl]-4-(trifluoromethyl)-1,3-thiazol-2-yl}-4,6-dimethoxypyrimidine-5-carboxamide], for which, at human TRPV3, the IC50 lay in the range of 0.05 to 0.1 µM. Besides, in the experiment with FITC-challenged mice (30 mg/kg qd po), the inhibition in vivo at 30 mg/kg was greater than 50%.

Regarding `COc1ncnc(OC)c1C(=O)Nc1nc(C(F)(F)F)c(CN2CCC(OC)CC2)s1` [Example 48, 4,6-dimethoxy-N-{5-[(4-methoxypiperidin-1-yl)methyl]-4-(trifluoromethyl)-1,3-thiazol-2-yl}pyrimidine-5-carboxamide], at human TRPV3, the IC50 is 0.1 to 0.5 µM. The inhibition in vivo at 30 mg/kg in the experiment with FITC-challenged mice (30 mg/kg bid po) is less than 30%.

Turning to `COc1ncnc(OC)c1C(=O)Nc1nc(C(F)(F)F)c(-c2cnoc2)s1` [Example 169, 4,6-dimethoxy-N-[5-(1,2-oxazol-4-yl)-4-(trifluoromethyl)-1,3-thiazol-2-yl]pyrimidine-5-carboxamide], the IC50 on human TRPV3 is less than 0.05 µM. The inhibition in vivo at 30 mg/kg with FITC-challenged mice (30 mg/kg bid po) was less than 30%. In the same order, the values of `COc1ncnc(OC)c1C(=O)Nc1nc(C(F)(F)F)c(-c2cc(C(F)(F)F)nn2C)s1` [Example 65, 4,6-dimethoxy-N-{5-[1-methyl-3-(trifluoromethyl)-1H-pyrazol-5-yl]-4-(trifluoromethyl)-1,3-thiazol-2-yl}pyrimidine-5-carboxamide] are less than 0.05 µM and less than 30%.

On to `COc1ncnc(OC)c1C(=O)Nc1nc(C(F)(F)F)c(CNCC(C)C)s1` [Example 52, 4,6-dimethoxy-N-[5-{[(2-methylpropyl)amino]methyl}-4-(trifluoromethyl)-1,3-thiazol-2-yl]pyrimidine-5-carboxamide], for which the IC50 on human TRPV3 was in the range of 0.05 to 0.1 µM. Besides, in the experiment with FITC-challenged mice (10 mg/kg qd po), the inhibition in vivo at 10 mg/kg was 30 to 50%. For `COc1ncnc(OC)c1C(=O)Nc1nc(C(F)(F)F)c(-c2cccnc2C)s1` [Example 64, 4,6-dimethoxy-N-[5-(2-methylpyridin-3-yl)-4-(trifluoromethyl)-1,3-thiazol-2-yl]pyrimidine-5-carboxamide], the IC50 on human TRPV3 was less than 0.05 µM. Also, the inhibition in vivo at 30 mg/kg with FITC-challenged mice (30 mg/kg qd po) was in the range of 30 to 50%.

With `COc1ncnc(OC)c1C(=O)Nc1nc(C(F)(F)F)c(-c2ccc3nonc3c2)s1` [Example 199, N-[5-(2,1,3-benzoxadiazol-5-yl)-4-(trifluoromethyl)-1,3-thiazol-2-yl]-4,6-dimethoxypyrimidine-5-carboxamide], at human TRPV3, the IC50 is less than 0.05 µM. For the same compound, the inhibition in vivo at 30 mg/kg with FITC-challenged mice (30 mg/kg bid po) fell in the range of 30 to 50%. Turning to `COc1ncnc(OC)c1C(=O)N(COP(=O)(O)O)c1nc(-c2ccc(C(F)(F)F)cn2)cs1` [Example 74, ([(4,6-dimethoxypyrimidin-5-yl)carbonyl]{4-[5-(trifluoromethyl)pyridin-2-yl]-1,3-thiazol-2-yl}amino)methyl dihydrogen phosphate], the inhibition in vivo at 100 mg/kg in the experiment on FITC-challenged mice was greater than 50%. Turning to `COc1ncnc(OC)c1C(=O)Nc1nc(C(F)(F)F)c(-c2cnc(C(F)(F)F)nc2)s1` [Example 202, 4,6-dimethoxy-N-{4-(trifluoromethyl)-5-[2-(trifluoromethyl)pyrimidin-5-yl]-1,3-thiazol-2-yl}pyrimidine-5-carboxamide], on human TRPV3, the IC50 was less than 0.05 µM. The inhibition in vivo at 30 mg/kg in the experiment on FITC-challenged mice (30 mg/kg bid po) is less than 30%. As to `COc1ncnc(OC)c1C(=O)Nc1nc(C(F)(F)F)c(-c2cccnc2C#N)s1` [Example 42, N-[5-(2-cyanopyridin-3-yl)-4-(trifluoromethyl)-1,3-thiazol-2-yl]-4,6-dimethoxypyrimidine-5-carboxamide], the IC50 on human TRPV3 was less than 0.05 µM. Besides, in the experiment on FITC-challenged mice (30 mg/kg bid po), the inhibition in vivo at 30 mg/kg was less than 30%. As for `COc1ncnc(OC)c1C(=O)Nc1nc(C(F)(F)F)c(-c2ccnc(C#N)c2)s1` [Example 66, N-[5-(2-cyanopyridin-4-yl)-4-(trifluoromethyl)-1,3-thiazol-2-yl]-4,6-dimethoxypyrimidine-5-carboxamide], on human TRPV3, the half-maximal inhibitory concentration (IC50) was in the range of 0.05 to 0.1 µM. Also, in the experiment with FITC-challenged mice, the inhibition in vivo at 100 mg/kg is greater than 50%.

For the compound `COc1ncnc(OC)c1C(=O)Nc1nc(C(F)(F)F)c(CN2CC[C@@H](F)C2)s1` [Example 58, N-[5-{[(3R)-3-fluoropyrrolidin-1-yl]methyl}-4-(trifluoromethyl)-1,3-thiazol-2-yl]-4,6-dimethoxypyrimidine-5-carboxamide], at human TRPV3, the IC50 lay within 0.05 to 0.1 µM. Also, the inhibition in vivo at 10 mg/kg with FITC-challenged mice (10 mg/kg qd po) lay within 30 to 50%. Regarding `COc1ncnc(OC)c1C(=O)Nc1nc(C(F)(F)F)c(-c2cncc(F)c2)s1` [Example 27, N-[5-(5-fluoropyridin-3-yl)-4-(trifluoromethyl)-1,3-thiazol-2-yl]-4,6-dimethoxypyrimidine-5-carboxamide], the IC50 on human TRPV3 lay within 0.05 to 0.1 µM. Besides, the inhibition in vivo at 30 mg/kg in the experiment on FITC-challenged mice (30 mg/kg bid po) was less than 30%. Regarding `COc1ncnc(OC)c1C(=O)Nc1nc(C(F)(F)F)c(-c2cccc(C#N)n2)s1` [Example 31, N-[5-(6-cyanopyridin-2-yl)-4-(trifluoromethyl)-1,3-thiazol-2-yl]-4,6-dimethoxypyrimidine-5-carboxamide], the half-maximal inhibitory concentration (IC50) at human TRPV3 is less than 0.05 µM. Besides, the inhibition in vivo at 30 mg/kg in the experiment on FITC-challenged mice (30 mg/kg qd po) is greater than 50%. For “N-[5-(4-cyanophenyl)-4-(trifluoromethyl)-1,3-thiazol-2-yl]-4,6-dimethoxypyrimidine-5-carboxamide [Example 41]”, on human TRPV3, the IC50 is less than 0.05 µM. For the same compound, the FITC % effect entry with FITC-challenged mice (30 mg/kg bid po) is “C (a reduction in ear skin thickness of <30% relative to vehicle-treated animals)”. In the case of `COc1ncnc(OC)c1C(=O)Nc1nc(C(F)(F)F)c(CN2CCC(F)CC2)s1` [Example 53, N-{5-[(4-fluoropiperidin-1-yl)methyl]-4-(trifluoromethyl)-1,3-thiazol-2-yl}-4,6-dimethoxypyrimidine-5-carboxamide], on human TRPV3, the IC50 is less than 0.05 µM. The inhibition in vivo at 10 mg/kg in the experiment on FITC-challenged mice (10 mg/kg bid po) is 30 to 50%. With `COC/C=C/c1sc(NC(=O)c2c(OC)ncnc2OC)nc1C(F)(F)F` [Example 18, 4,6-dimethoxy-N-{5-[(1E)-3-methoxyprop-1-en-1-yl]-4-(trifluoromethyl)-1,3-thiazol-2-yl}pyrimidine-5-carboxamide], at human TRPV3, the IC50 is less than 0.05 µM. Consider `CCOC(=O)c1sc(NC(=O)c2c(OC)ncnc2OC)nc1C(C)(C)C` [Example 193, ethyl 4-tert-butyl-2-{[(4,6-dimethoxypyrimidin-5-yl)carbonyl]amino}-1,3-thiazole-5-carboxylate], for which the IC50 at human TRPV3 is less than 0.05 µM. Still for that read-out and setting: in the case of `COc1ncnc(OC)c1C(=O)Nc1nc(-c2ccc(C(F)(F)F)cn2)c(CO)s1` [Example 80, N-{5-(hydroxymethyl)-4-[5-(trifluoromethyl)pyridin-2-yl]-1,3-thiazol-2-yl}-4,6-dimethoxypyrimidine-5-carboxamide] it was 0.05 to 0.1 µM.

The record behind these values is patent publication US20180243298A1, “TRPV3 MODULATORS” (AbbVie Inc., priority 2015, published 2018).
